Test results: paper PMC8152814, “The modulatory role of sulfated and non-sulfated small molecule heparan sulfate-glycomimetics in endothelial dysfunction: absolute structural clarification, molecular docking and simulated dynamics, SAR analyses and ADMET studies” (RSC Medicinal Chemistry, 2021)

Experiments:
NADPH oxidase = NADPH oxidase activity (lucigenin chemiluminescence) in cell homogenates; type: cell-based, human; parameters: concentration or dose not given beside the values; details: averaged % of increase (+) or decrease (−) compared to control (FFA induced oxidatively stressed endothelial cells), n = 3
Text: The assays focused on the production of nitric oxide (NO) and the upregulation of nitric oxide synthase (eNOS), the production of reactive oxygen species (ROS) and the activity of nicotinamide adenine dinucleotide phosphate (NADPH) oxidase (Table 2). From the hypothesised model of heparan sulfate-glycomimetic activity,[17] the glycomimetics are proposed to attenuate the binding of HGF to the cMET receptor. This disruption to MET-receptor activation is proposed to modulate intracellular phosphorylation leading to an upregulation of eNOS and increased output of extracellular NO. […] Overall, the cross examination of NO output and reduction of ROS was used to determine the therapeutic action of the triaged glycomimetics α-4, R-10, S-10 and β-5, as well as 3 non-sulfated intermediates α-2, α-3 and β-3, on free fatty acid (FFA) induced, oxidatively stressed endothelial cell cultures (Table 2).
Biological assay and AMDET experimental details […]
Preparation of FFA-albumin complexes and cell treatments
To generate the in vitro model of oxidative stress, sodium palmitate was bound to bovine serum albumin (BSA) as outlined by Chavez and Summers,S2 with modifications. Sodium palmitate (FFA) was dissolved in EtOH at 60 °C and diluted 1:100 in M199 media supplemented with 2% fatty acid-free bovine serum albumin (BSA) and incubated for 1 h at 37 °C. HepG2 cells were treated with 1 μmol/L of the synthesized HS-glycomimetics in the presence of palmitate (100 μmol/L) for 3 h or pre-treated with glycomimetics for 12 h followed by 3 h palmitate (100 μmol/L). Control cells were incubated in serum free M199 containing 2% (wt/vol) fatty acid-free BSA. […]
H2DCFDA, Sigma) for 30 min at 37 °C, and the level of fluorescence was determined (excitation 490 nm; emission 540 nm) using a microplate reader (BioTek).
The level of NADPH-enhanced superoxide anions (O2•−) in HepG2 homogenates was determined by lucigenin-enhanced chemiluminescence.S4 Following the various treatment conditions, cells were homogenized in a buffer (20 mmol/L H2KPO4 and 1 mmol/L EDTA supplemented with aprotinin, leuprotinin, pepstatin and PMSF). The total protein quantified using the Bicinchoninic acid (BCA) assay (Pierce Biotechnology). To 50 μg of total protein, NADPH (100 μmol/L) was added in a total volume of 500 μL, with lucigenin (5 μmol/L) and was injected automatically. Activity was determined by measuring luminescence over 200 s in a scintillation counter (Lumat LB 9507, Berthold, Germany). Basal values of NADPH oxidase activity were subtracted from the experimental values and expressed as RLU/min/μg protein […]
In situ quantification of ROS species
Superoxide dismutase (SOD) and catalase (CAT) activity assays, and in situ detection of vascular ROS content. The activity of the enzymes, SOD and CAT, was determined in cell homogenates using assay kits according to the manufacturer's instructions (Cayman; Cat No 706002 and 707002 respectively). A unit of SOD was defined as the amount of enzyme […]
Similarly, a unit of CAT was […]
defined as the amount required to form 1.0 nmol of formaldehyde per min at 25 °C.S5

Caco-2 cells = experiment: Caco-2 permeability (bi-directional); type: in vitro ADME
Protocol: Physicochemical and ADMET properties of representative glycomimetics. […]
ymax = mean vehicle control response
Caco-2 Permeability (A-B or Bi-directional)
Caco-2 cells (ATCC, Virginia, USA) are used between passage numbers 40-60. Cells are seeded onto Millipore Multiscreen Transwell plates at 1 x 10^5 cells/cm2. The cells are cultured in DMEM and media is changed every two or three days. On day 20 the permeability study is performed. Cell culture and assay incubations are carried out at 37 °C in an atmosphere of 5 % CO2 with a relative humidity of 95%. On the day of the assay, the monolayers are prepared by rinsing both apical and basolateral surfaces twice with Hanks Balanced Salt Solution (HBSS) at the desired pH warmed to 37 °C. Cells are then incubated with HBSS at the desired pH in both apical and basolateral compartments for 40 min to stabilise physiological […]
The dosing solutions are prepared by diluting test compound with assay buffer to give a final test compound concentration of 10 µM (final DMSO concentration of 1 % v/v). The fluorescent integrity marker lucifer yellow is also included in the dosing solution. Analytical standards are prepared from test compound DMSO dilutions and transferred to buffer, maintaining a 1% v/v DMSO concentration. Typical assay buffer is composed of supplemented HBSS pH 7.4 but a range of other buffers and pH values can be used.
For assessment of A-B permeability, HBSS is removed from the apical compartment and replaced with test compound dosing solution. The apical compartment insert is then placed into a companion plate containing fresh buffer (containing 1 % v/v DMSO). For assessment of B-A permeability, HBSS is removed from the companion plate and replaced with test compound dosing solution. Fresh buffer (containing 1 % v/v DMSO) is added to the apical compartment insert, which is then placed into the companion plate.
At 120 min the apical compartment inserts and the companion plates are separated and apical and basolateral samples diluted for analysis. Test compound permeability is assessed in duplicate. Compounds of known permeability characteristics are run as controls on each assay plate. Test and control compounds are quantified by LC-MS/MS cassette analysis using an 8-point calibration with appropriate dilution of the samples. The starting concentration (C0) is determined from the dosing solution and the experimental recovery calculated from C0 and both apical and basolateral compartment concentrations.
The integrity of the monolayer throughout the experiment is checked by monitoring lucifer yellow permeation using fluorimetric analysis. Lucifer yellow permeation is high if monolayers have been damaged. If a lucifer yellow Papp value is above a pre-defined threshold in one individual test compound well, the compound may be re-tested or an n = 1 result is reported.
If lucifer yellow Papp values are above the threshold in both replicate wells for a test compound, the compound is re-tested. If this re-occurs upon repeat in both wells then toxicity or inherent fluorescence of the test compound is assumed.
The permeability coefficient (Papp) for each compound is calculated from the following […]
Where dQ/dt is the rate of permeation of the drug across the cells, C0 is the donor compartment concentration at time zero and A is the area of the cell monolayer. C0 is obtained from analysis […]
For bi-directional experiments, an efflux ratio (ER) is calculated from mean A-B and B-A data.
Three control compounds are screened alongside the test compounds, atenolol (human absorption 50%), propranolol (human absorption 90%) and talinolol (a substrate for […]

| Compound | NADPH oxidase activity (NADPH oxidase) | Caco-2 cell permeability levels (Caco-2 cells) | Caco-2 (A2B Papp) (Caco-2 cells; A2B, 10 µM, 120 min) | Caco-2 (B2A Papp) (Caco-2 cells; 10 µM, 120 min) |
| --- | --- | --- | --- | --- |
| COC(=O)c1cc(OC[C@@H](COS(=O)(=O)[O-])OS(=O)(=O)[O-])ccc1OCC(COS(=O)(=O)[O-])OS(=O)(=O)[O-].[Na+].[Na+].[Na+].[Na+] (mixture of isomers) [α-4, sodium 3-(4-((S)-2,3-bis(sulfonatooxy)propoxy)-2-(methoxycarbonyl)phenoxy)propane-1,2-diyl bis(sulfate)] | −29% | – | – | – |
| O=C([O-])c1cc(OC[C@H](COS(=O)(=O)[O-])OS(=O)(=O)[O-])ccc1OCC(COS(=O)(=O)[O-])OS(=O)(=O)[O-].[Na+].[Na+].[Na+].[Na+].[Na+] (mixture of isomers) [β-5, sodium 5-((R)-2,3-bis(sulfonatooxy)propoxy)-2-(2,3-bis(sulfonatooxy)propoxy)benzoate] | −31% | low or not detected | Not detected | Not detected |
| COC(=O)c1cc(OC[C@H](COS(=O)(=O)[O-])OS(=O)(=O)[O-])ccc1OCCCCOS(=O)(=O)[O-].[Na+].[Na+].[Na+] [Compound R-10, sodium (R)-3-(3-(methoxycarbonyl)-4-(4-(sulfonatooxy)butoxy)phenoxy)propane-1,2-diyl bis(sulfate)] | −31% | low or not detected | – | Not detected |
| COC(=O)c1cc(OC[C@@H](COS(=O)(=O)[O-])OS(=O)(=O)[O-])ccc1OCCCCOS(=O)(=O)[O-].[Na+].[Na+].[Na+] [Compound S-10, sodium (S)-3-(3-(methoxycarbonyl)-4-(4-(sulfonatooxy)butoxy)phenoxy)propane-1,2-diyl bis(sulfate)] | −27% | – | – | – |
